Earlier results, collected in patent US20130011354A1, “Compositions For Enhancing Hair Growth” (Allergan, Inc., priority 2009, published 2013).

Tested on: eyelashes
Details: Lumigan ophthalmic solution applied in the FDA approved manner for glaucoma

In the case of `CCNC(=O)CCC/C=C\C[C@@H]1[C@@H](/C=C/[C@@H](O)CCc2ccccc2)[C@H](O)C[C@@H]1O` [Bimatoprost, cyclopentane N-ethyl heptanamide-5-cis-2-(3α-hydroxy-5-phenyl-1-trans-pentenyl)-3,5-dihydroxy, [1α,2β,3α,5α]], the growth of eyelashes is given as “effective to increase the growth of eyelashes”.
